Laboratory results published in ChEMBL document CHEMBL5729116, “hTRPV1 chemical agents” (2022).

Molecular target: Transient receptor potential cation channel subfamily V member 1 (Homo sapiens, UniProt Q8NER1)
Assay: RTX Competition Binding Assay.: Binding studies with [3H]RTX were carried out as follows. The binding assay mixtures were prepared in 1.5 ml centrifuge tubes and consisted of a fixed concentration (approximately 2 nM) of [3H]RTX (37 Ci/mmol specific activity, PerkinElmer Life Sciences), various concentrations of competing ligands, and […] of membranes from induced CHO-hTRPV1 expressing cells (approximately 1-3×10^6 cells) in Dulbecco's phosphate buffered saline (DPBS, with Ca2+ & Mg2+) for a total volume of 350 μl. The assay mix contained bovine serum albumin at a final concentration of 0.25 mg/ml (Cohn fraction V; Sigma-Aldrich, St. Louis, Mo.). In each set of experiments, nonspecific binding were determined in the presence of 200 nM non-radioactive RTX. The binding reaction was initiated by placing the assay mixture in a 37° C. shaking water bath for 60 minutes (−30 rpm). The assay mixture was then chilled on ice for 2-3 min before adding 100 μl of α1-acid glycoprotein (2 mg/ml; Sigma-Aldrich) and mixed thoroughly. The tubes were kept on ice for an additional 10 min. The bound and free ligands were then separated by centrifugation (12,200 rpm for 15 minutes) in a Beckman Coulter centrifuge Allegra 21R. 200 μl of supernatant was collected for determination of free ligand. The remainder was removed by aspiration.

Chain of Transient receptor potential cation channel subfamily V member 1 (Q8NER1 whole entry): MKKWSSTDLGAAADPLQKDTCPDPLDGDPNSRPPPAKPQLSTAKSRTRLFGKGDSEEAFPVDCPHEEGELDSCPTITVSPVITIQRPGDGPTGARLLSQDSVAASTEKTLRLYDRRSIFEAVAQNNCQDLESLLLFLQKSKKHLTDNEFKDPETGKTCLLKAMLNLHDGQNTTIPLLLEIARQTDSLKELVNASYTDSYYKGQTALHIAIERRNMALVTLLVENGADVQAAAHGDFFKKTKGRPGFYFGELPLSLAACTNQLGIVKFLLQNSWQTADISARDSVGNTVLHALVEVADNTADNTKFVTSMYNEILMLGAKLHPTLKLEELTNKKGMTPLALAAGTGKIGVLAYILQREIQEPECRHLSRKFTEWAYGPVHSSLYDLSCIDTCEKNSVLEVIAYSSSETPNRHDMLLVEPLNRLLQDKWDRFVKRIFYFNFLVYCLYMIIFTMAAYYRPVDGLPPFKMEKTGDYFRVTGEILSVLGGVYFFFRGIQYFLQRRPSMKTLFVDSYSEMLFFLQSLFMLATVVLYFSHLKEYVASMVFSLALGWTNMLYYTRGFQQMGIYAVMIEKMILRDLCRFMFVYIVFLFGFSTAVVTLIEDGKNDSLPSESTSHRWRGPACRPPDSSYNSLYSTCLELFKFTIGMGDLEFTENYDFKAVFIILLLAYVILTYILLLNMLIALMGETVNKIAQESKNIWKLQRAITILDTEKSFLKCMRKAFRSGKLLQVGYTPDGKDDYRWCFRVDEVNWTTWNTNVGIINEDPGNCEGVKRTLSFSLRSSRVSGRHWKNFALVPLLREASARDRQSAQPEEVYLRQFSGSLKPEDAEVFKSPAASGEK

Compound O=C(Nc1cccc(C(F)(F)F)c1)Nc1ccc([N+](=O)[O-])cc1Cl has a Ki of 2.57 µM.
